For data set [1] the following is noted: in aqueous (physiological) buffers; cited from earlier work.
Another data set has as its system many cell types. The following applies: intracellular pH measurements, overnight incubation at 2 mM; cited from earlier work.
The test system of a further data set is hPBMCs. Description: metabolic activity (MA) test, extracellular acidification of PBMCs. The class given is cell-based, human. The following applies: hPBMCs of cancer patients, increasing PSA concentrations, FIGS. 8A-D. The method, then: Fresh peripheral blood mononuclear cells (PBMCs) were isolated by Ficoll-Paque (UNI-SEP, Novamed) and gradient centrifugation. The pellet was resuspended in working solution (WS) (PBS with calcium and magnesium) including the fluorescent probe (HPTS) at a final concentration of 5×10^6 cells/ml.
Each well in a black non-binding, low-volume 384 multi-well plate (Greiner Bio-One) was loaded with 10 μl of the PBMCs solution and 10 μl of working solution plus HPTS including one of ten reagents in 8 increasing concentrations. Thus the final concentration of the probe in each well was 1 μM, and the final concentration of the PBMCs was 2.5×10^6 cells/ml in 20 μl physiological working solution containing 10 mM phosphate buffer around pH 7.3. […] The acidification process was monitored each 5 min during 1 hour of incubation at 37° C. by a commercial fluorescence scanner (TECAN Infinite M200). First, the scanner monitored the acidification process without sealing (“OPEN” mode) during 30 min (6 cycles) and then, to avoid ventilation of CO2 and NH3 from each well, the multi-well plate was sealed hermetically (ThermalSeal RT™, EXCEL Scientific, Inc.) (“CLOSE” mode). Next, the acidification process was monitored again during 30 min (6 cycles). In order to increase the signal to noise ratio, the fluorescence intensities at 513 nm were measured sequentially under excitation at 455 nm and 403 nm per well. […]

As usually defined, the pKa is the negative logarithm of the acid dissociation constant.

As for `O=S(=O)(O)c1cc(O)c2ccc3c(S(=O)(=O)O)cc(S(=O)(=O)O)c4ccc1c2c34` [HPTS, 8-Hydroxypyrene-1,3,6-trisulfonic acid], the pKa in data set [1] was roughly 7.3. In the data set on many cell types, the toxicity entry was “low-toxicity”.
“PSA: normal prostate tissue specific antigen peptide (146-154aa) recognized by cytotoxic T lymphocytes (PALGTTCYA; UniProt P07288 146-154, looked up, fragment)”: the “MA-test profile under stimulation” value in the data set on hPBMCs is reported as “marked peaks at optimal concentrations”.

(Values after patent US9784731B2, “Methods of monitoring and analyzing metabolic activity profiles diagnostic and therapeutic uses of same” (priority 2011, dated 2017).)
